Where a name gives a salt, the structure may show the parent alone.
Tests used:
NHE3 [1] = biological target: T1, NHE3 (Homo sapiens, UniProt P48764); assay: Cell-based assay of NHE-3 activity (pre-incubation inhibition), human; settings: human Preincubation
T1 construct: expressed in transfected cells
T1 sequence (P48764 26-834): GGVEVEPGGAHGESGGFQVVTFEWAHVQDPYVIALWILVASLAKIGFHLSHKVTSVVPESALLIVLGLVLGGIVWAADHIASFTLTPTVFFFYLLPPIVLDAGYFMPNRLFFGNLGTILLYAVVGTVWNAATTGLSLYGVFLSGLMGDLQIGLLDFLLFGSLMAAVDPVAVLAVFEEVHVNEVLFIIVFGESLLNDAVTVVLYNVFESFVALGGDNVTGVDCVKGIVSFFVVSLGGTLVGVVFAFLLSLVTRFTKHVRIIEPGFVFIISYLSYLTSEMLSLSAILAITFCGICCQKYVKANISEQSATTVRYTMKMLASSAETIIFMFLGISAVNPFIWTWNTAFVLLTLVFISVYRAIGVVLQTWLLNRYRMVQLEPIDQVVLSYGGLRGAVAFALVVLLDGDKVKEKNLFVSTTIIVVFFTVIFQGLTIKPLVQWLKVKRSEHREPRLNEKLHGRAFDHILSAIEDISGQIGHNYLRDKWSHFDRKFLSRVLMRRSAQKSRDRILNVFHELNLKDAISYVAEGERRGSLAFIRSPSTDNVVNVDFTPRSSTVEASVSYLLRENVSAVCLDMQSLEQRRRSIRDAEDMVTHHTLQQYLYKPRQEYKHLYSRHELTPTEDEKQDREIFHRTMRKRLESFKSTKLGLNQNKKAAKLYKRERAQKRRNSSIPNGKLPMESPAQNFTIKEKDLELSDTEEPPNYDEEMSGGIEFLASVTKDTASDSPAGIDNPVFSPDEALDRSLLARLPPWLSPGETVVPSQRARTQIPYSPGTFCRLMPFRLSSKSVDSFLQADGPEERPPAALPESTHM
T1 sequence (Q99653 2-195 partner limits assumed): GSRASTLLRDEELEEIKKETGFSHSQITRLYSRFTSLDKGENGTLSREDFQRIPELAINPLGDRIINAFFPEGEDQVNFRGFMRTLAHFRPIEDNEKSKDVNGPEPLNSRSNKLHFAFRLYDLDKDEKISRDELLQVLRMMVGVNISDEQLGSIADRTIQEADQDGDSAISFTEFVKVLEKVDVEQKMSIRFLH
Outline: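 PS120 fibroblasts stably expressing human NHE3 and NHERF2, loaded 30 min at 37 °C with 5 μM BCECF-AM in NH4Cl buffer, then acidified 10 min at room temperature in Na+-free buffer with 0–30 μM compound. Initial rate of BCECF fluorescence ratio change (FLIPR) per minute taken as Na+/H+ activity.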

NHE3 [2] = biological target: T1, NHE3; assay: Cell-based assay of NHE-3 activity (persistent inhibition), human; settings: human Persistence, 60 min incubation then washout
Outline: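 PS120 fibroblasts expressing human NHE3 with NHERF2 exposed to 0-30 μM compound for 60 min at RT, then washed out; cells acid-loaded by NH4Cl prepulse with BCECF-AM and Na+-free buffer. Na+-driven pH recovery started 10 min post-washout; initial rate of BCECF ratio change (FLIPR) taken as activity.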

| SMILES | % inhibition (NHE3 [1]) | IC50 (NHE3 [1]; 0-30 μM test compound) [nM] | % inhibition (NHE3 [2]) | pIC50 (NHE3 [1]; 0-30 μM test compound) | pIC50 (NHE3 [2]) | IC50 (NHE3 [2]) [nM] |
| --- | --- | --- | --- | --- | --- | --- |
| C[C@@H](COCCOCCNC(=O)NCCCCNC(=O)NCCOCCOC[C@H](C)NS(=O)(=O)c1ccc(O[C@H]2c3cc(Cl)cc(Cl)c3C[C@@H]2N2CCC[C@@H](N)C2)cc1)NS(=O)(=O)c1ccc(O[C@H]2c3cc(Cl)cc(Cl)c3C[C@@H]2N2CCC[C@@H](N)C2)cc1 [Example 96, 1-(2-[2-[(2S)-2-[(4-[[(1S,2S)-2-[(3R)-3-Aminopiperidin-1-yl]-4,6-dichloro-2,3-dihydro-1H-inden-1-yl]oxy]benzene)sulfonamido]propoxy]ethoxy]ethyl)-3-(4-[[(2-[2-[(2S)-2-[(4-[[(1S,2S)-2-[(3R)-3-aminopiperidin-1-yl]-4,6-dichloro-2,3-dihydro-1H-inden-1-yl]oxy]benzene)sulfonamido]propoxy]ethoxy]ethyl)carbamoyl]amino]butyl)urea; hydrochloride] | C (>70%) | < 100 | C (>70%) |  |  | < 100 |
| C[C@H](COCCOCCNC(=O)NCCCCNC(=O)NCCOCCOC[C@@H](C)NS(=O)(=O)c1ccc(O[C@H]2c3cc(Cl)cc(Cl)c3C[C@@H]2N2CCC[C@@H](N)C2)cc1)NS(=O)(=O)c1ccc(O[C@H]2c3cc(Cl)cc(Cl)c3C[C@@H]2N2CCC[C@@H](N)C2)cc1 [Example 97, 3-(2-[2-[(2R)-2-[(4-[[(1S,2S)-2-[(3R)-3-Aminopiperidin-1-yl]-4,6-dichloro-2,3-dihydro-1H-inden-1-yl]oxy]benzene)sulfonamido]propoxy]ethoxy]ethyl)-1-(4-[[(2-[2-[(2R)-2-[(4-[[(1S,2S)-2-[(3R)-3-aminopiperidin-1-yl]-4,6-dichloro-2,3-dihydro-1H-inden-1-yl]oxy]benzene)sulfonamido]propoxy]ethoxy]ethyl)carbamoyl]amino]butyl)urea] | C (>70%) |  | C (>70%) | C (NHE3 pIC50 > 7) | C (NHE3 pIC50 > 7) |  |
| CC(C)[C@@H](COCCOCCNC(=O)NCCCCNC(=O)NCCOCCOC[C@@H](NS(=O)(=O)c1ccc(O[C@H]2c3cc(Cl)cc(Cl)c3C[C@@H]2N2CCC[C@@H](N)C2)cc1)C(C)C)NS(=O)(=O)c1ccc(O[C@H]2c3cc(Cl)cc(Cl)c3C[C@@H]2N2CCC[C@@H](N)C2)cc1 [Example 98, 3-(2-[2-[(2S)-2-[(4-[[(1S,2S)-2-[(3R)-3-Aminopiperidin-1-yl]-4,6-dichloro-2,3-dihydro-1H-inden-1-yl]oxy]benzene)sulfonamido]-3-methylbutoxy]ethoxy]ethyl)-1-(4-[[(2-[2-[(2S)-2-[(4-[[(1S,2S)-2-[(3R)-3-aminopiperidin-1-yl]-4,6-dichloro-2,3-dihydro-1H-inden-1-yl]oxy]benzene)sulfonamido]-3-methylbutoxy]ethoxy]ethyl)carbamoyl]amino]butyl)urea dihydrochloride] | C (>70%) |  | C (>70%) | C (NHE3 pIC50 > 7) | C (NHE3 pIC50 > 7) |  |
| CC(C)[C@H](COCCOCCNC(=O)NCCCCNC(=O)NCCOCCOC[C@H](NS(=O)(=O)c1ccc(O[C@H]2c3cc(Cl)cc(Cl)c3C[C@@H]2N2CCC[C@@H](N)C2)cc1)C(C)C)NS(=O)(=O)c1ccc(O[C@H]2c3cc(Cl)cc(Cl)c3C[C@@H]2N2CCC[C@@H](N)C2)cc1 [Example 99, 3-(2-[2-[(2R)-2-[(4-[[(1S,2S)-2-[(3R)-3-Aminopiperidin-1-yl]-4,6-dichloro-2,3-dihydro-1H-inden-1-yl]oxy]benzene)sulfonamido]-3-methylbutoxy]ethoxy]ethyl)-1-(4-[[(2-[2-[(2R)-2-[(4-[[(1S,2S)-2-[(3R)-3-aminopiperidin-1-yl]-4,6-dichloro-2,3-dihydro-1H-inden-1-yl]oxy]benzene)sulfonamido]-3-methylbutoxy]ethoxy]ethyl)carbamoyl]amino]butyl)urea] | C (>70%) |  | C (>70%) | C (NHE3 pIC50 > 7) |  | 100 to 1000 |

Further lines, with some results ahead:

| % inhibition (NHE3 [1]) | IC50 (NHE3 [1]; 0-30 μM test compound) [nM] | % inhibition (NHE3 [2]) | pIC50 (NHE3 [1]; 0-30 μM test compound) | pIC50 (NHE3 [2]) | SMILES | IC50 (NHE3 [2]) [nM] |
| --- | --- | --- | --- | --- | --- | --- |
| C (>70%) |  | C (>70%) | C (NHE3 pIC50 > 7) | C (NHE3 pIC50 > 7) | CC(C)(COCCOCCNC(=O)NCCCCNC(=O)NCCOCCOCC(C)(C)NS(=O)(=O)c1ccc(O[C@H]2c3cc(Cl)cc(Cl)c3C[C@@H]2N2CCC[C@@H](N)C2)cc1)NS(=O)(=O)c1ccc(O[C@H]2c3cc(Cl)cc(Cl)c3C[C@@H]2N2CCC[C@@H](N)C2)cc1 [Example 100, 1-[2-(2-[2-[(4-[[(1S,2S)-2-[(3R)-3-Aminopiperidin-1-yl]-4,6-dichloro-2,3-dihydro-1H-inden-1 yl]oxy]benzene)sulfonamido]-2-methylpropoxy]ethoxy)ethyl]-3-[4-([[2-(2-[2-[(4-[[(1S,2S)-2-[(3R)-3-aminopiperidin-1-yl]-4,6-dichloro-2,3-dihydro-1H-inden-1-yl]oxy]benzene)sulfonamido]-2-methylpropoxy]ethoxy)ethyl]carbamoyl]amino)butyl]urea; hydrochloride] |  |
| C (>70%) |  | B (40-70%) | C (NHE3 pIC50 > 7) | C (NHE3 pIC50 > 7) | COc1cc(O[C@H]2c3cc(Cl)cc(Cl)c3C[C@@H]2N2CCC[C@@H](N)C2)ccc1S(=O)(=O)NCCOCCOCCNC(=O)NCCCCNC(=O)NCCOCCOCCNS(=O)(=O)c1ccc(O[C@H]2c3cc(Cl)cc(Cl)c3C[C@@H]2N2CCC[C@@H](N)C2)cc1OC [Example 101, 1-[2-(2-[2-[(4-[[(1S,2S)-2-[(3R)-3-Aminopiperidin-1-yl]-4,6-dichloro-2,3-dihydro-1H-inden-1-yl]oxy]-2-methoxybenzene)sulfonamido]ethoxy]ethoxy)ethyl]-3-[4-([[2-(2-[2-[(4-[[(1S,2S)-2-[(3R)-3-aminopiperidin-1-yl]-4,6-dichloro-2,3-dihydro-1H-inden-1-yl]oxy]-2-methoxybenzene)sulfonamido]ethoxy]ethoxy)ethyl]carbamoyl]amino)butyl]urea] |  |
| C (>70%) |  | C (>70%) | C (NHE3 pIC50 > 7) | C (NHE3 pIC50 > 7) | Cc1cc(O[C@H]2c3cc(Cl)cc(Cl)c3C[C@@H]2N2CCC[C@@H](N)C2)ccc1S(=O)(=O)NCCOCCOCCNC(=O)NCCCCNC(=O)NCCOCCOCCNS(=O)(=O)c1ccc(O[C@H]2c3cc(Cl)cc(Cl)c3C[C@@H]2N2CCC[C@@H](N)C2)cc1C [Example 102, 3-[2-(2-[2-[(4-[[(1S,2S)-2-[(3R)-3-Aminopiperidin-1-yl]-4,6-dichloro-2,3-dihydro-1H-inden-1-yl]oxy]-2-methylbenzene)sulfonamido]ethoxy]ethoxy)ethyl]-1-[4-([[2-(2-[2-[(4-[[(1S,2S)-2-[(3R)-3-aminopiperidin-1-yl]-4,6-dichloro-2,3-dihydro-1H-inden-1-yl]oxy]-2-methylbenzene)sulfonamido]ethoxy]ethoxy)ethyl]carbamoyl]amino)butyl]urea] |  |
| C (>70%) |  | C (>70%) | C (NHE3 pIC50 > 7) | C (NHE3 pIC50 > 7) | N[C@@H]1CCCN([C@H]2Cc3c(Cl)cc(Cl)cc3[C@@H]2Oc2ccc(S(=O)(=O)NCCOCCOCCNC(=O)NCCCCNC(=O)NCCOCCOCCNS(=O)(=O)c3ccc(O[C@H]4c5cc(Cl)cc(Cl)c5C[C@@H]4N4CCC[C@@H](N)C4)cc3F)c(F)c2)C1 [Example 103, 1-[2-(2-[2-[(4-[[(1S,2S)-2-[(3R)-3-Aminopiperidin-1-yl]-4,6-dichloro-2,3-dihydro-1H-inden-1-yl]oxy]-2-fluorobenzene)sulfonamido]ethoxy]ethoxy)ethyl]-3-[4-([[2-(2-[2-[(4-[[(1S,2S)-2-[(3R)-3-aminopiperidin-1-yl]-4,6-dichloro-2,3-dihydro-1H-inden-1-yl]oxy]-2-fluorobenzene)sulfonamido]ethoxy]ethoxy)ethyl]carbamoyl]amino)butyl]urea] |  |
| C (>70%) |  | C (>70%) | C (NHE3 pIC50 > 7) | C (NHE3 pIC50 > 7) | N[C@@H]1CCCN([C@H]2Cc3c(Cl)cc(Cl)cc3[C@@H]2Oc2ccc(S(=O)(=O)NCCOCCOCCNC(=O)NCCCCNC(=O)NCCOCCOCCNS(=O)(=O)c3ccc(O[C@H]4c5cc(Cl)cc(Cl)c5C[C@@H]4N4CCC[C@@H](N)C4)cc3Cl)c(Cl)c2)C1 [Example 104] |  |
